Columns and labels:
[1] = refractive index (Na D-line) (dimensionless); xn = mol fraction of the nth substance listed; details: 100.5 kPa, Liquid, Standard Abbe refractometry
[2] = xn = mol fraction of the nth substance listed; details: Wilhelmy plate method

CCOC(=O)c1ccccc1O [ethyl 2-hydroxybenzoate] + CCO
Details | refractive index, 288.15 K | refractive index, 298.18 K | refractive index, 308.15 K | refractive index, 318.15 K | surface tension liquid-gas, 288.15 K [mN/m] | surface tension liquid-gas, 298.18 K [mN/m] | surface tension liquid-gas, 308.15 K [mN/m] | surface tension liquid-gas, 318.15 K [mN/m]
[1], x1 = 0.05 | 1.38326 | 1.37908 | 1.37478 | 1.37068 | – | – | – | –
[1], x1 = 0.1 | 1.40028 | 1.39599 | 1.39159 | 1.38739 | – | – | – | –
[1], x1 = 0.15 | 1.41504 | 1.41072 | 1.40628 | 1.40202 | – | – | – | –
[1], x1 = 0.2 | 1.42788 | 1.42347 | 1.41902 | 1.4147 | – | – | – | –
[1], x1 = 0.25 | 1.43914 | 1.43468 | 1.4302 | 1.4258 | – | – | – | –
[1], x1 = 0.3 | 1.44918 | 1.44465 | 1.44012 | 1.43567 | – | – | – | –
[1], x1 = 0.35 | 1.4582 | 1.45364 | 1.44908 | 1.44456 | – | – | – | –
[1], x1 = 0.4 | 1.46635 | 1.46177 | 1.45719 | 1.45266 | – | – | – | –
[1], x1 = 0.45 | 1.47375 | 1.46918 | 1.46462 | 1.46008 | – | – | – | –
[1], x1 = 0.5 | 1.48051 | 1.47593 | 1.47139 | 1.46685 | – | – | – | –
[1], x1 = 0.55 | 1.4867 | 1.48212 | 1.4776 | 1.47306 | – | – | – | –
[1], x1 = 0.6 | 1.49239 | 1.48782 | 1.48328 | 1.47873 | – | – | – | –
[1], x1 = 0.65 | 1.49763 | 1.49304 | 1.48852 | 1.48397 | – | – | – | –
[1], x1 = 0.7 | 1.50246 | 1.49784 | 1.49331 | 1.48874 | – | – | – | –
[1], x1 = 0.75 | 1.50695 | 1.50232 | 1.49779 | 1.49321 | – | – | – | –
[1], x1 = 0.8 | 1.51112 | 1.50649 | 1.50196 | 1.49738 | – | – | – | –
[1], x1 = 0.85 | 1.51498 | 1.51035 | 1.50582 | 1.50123 | – | – | – | –
[1], x1 = 0.9 | 1.51852 | 1.51391 | 1.50938 | 1.50479 | – | – | – | –
[1], x1 = 0.95 | 1.52184 | 1.51723 | 1.51272 | 1.50814 | – | – | – | –
[1], x1 = 1 | 1.52481 | 1.52022 | 1.51573 | 1.51116 | – | – | – | –
[2], x1 = 0.05 | – | – | – | – | 24 | 23.17 | 22.27 | 21.3
[2], x1 = 0.1 | – | – | – | – | 24.8 | 23.9 | 22.94 | 21.97
[2], x1 = 0.15 | – | – | – | – | 25.5 | 24.55 | 23.55 | 22.57
[2], x1 = 0.2 | – | – | – | – | 26.1 | 25.14 | 24.13 | 23.17
[2], x1 = 0.25 | – | – | – | – | 26.65 | 25.65 | 24.67 | 23.7
[2], x1 = 0.3 | – | – | – | – | 27.2 | 26.15 | 25.17 | 24.2
[2], x1 = 0.35 | – | – | – | – | 27.7 | 26.65 | 25.62 | 24.67
[2], x1 = 0.4 | – | – | – | – | 28.1 | 27.1 | 26.08 | 25.17
[2], x1 = 0.45 | – | – | – | – | 28.6 | 27.55 | 26.58 | 25.7
[2], x1 = 0.5 | – | – | – | – | 29.13 | 28.1 | 27.12 | 26.25
[2], x1 = 0.55 | – | – | – | – | 29.71 | 28.66 | 27.68 | 26.8
[2], x1 = 0.6 | – | – | – | – | 30.33 | 29.25 | 28.26 | 27.38
[2], x1 = 0.65 | – | – | – | – | 31 | 29.9 | 28.9 | 28
[2], x1 = 0.7 | – | – | – | – | 31.7 | 30.6 | 29.56 | 28.67
[2], x1 = 0.75 | – | – | – | – | 32.5 | 31.38 | 30.3 | 29.4
[2], x1 = 0.8 | – | – | – | – | 33.4 | 32.25 | 31.13 | 30.2
[2], x1 = 0.85 | – | – | – | – | 34.4 | 33.18 | 32.03 | 31.1
[2], x1 = 0.9 | – | – | – | – | 35.4 | 34.18 | 33.03 | 32.18
[2], x1 = 0.95 | – | – | – | – | 36.4 | 35.17 | 34.07 | 33.2
[2], x1 = 1 | – | – | – | – | 37.5 | 36.3 | 35.2 | 34.4

COC(=O)c1ccccc1 [methyl benzoate] + CCO
Details | refractive index, 288.15 K | refractive index, 298.18 K | refractive index, 308.15 K | refractive index, 318.15 K | surface tension liquid-gas, 288.15 K [mN/m] | surface tension liquid-gas, 298.18 K [mN/m] | surface tension liquid-gas, 308.15 K [mN/m] | surface tension liquid-gas, 318.15 K [mN/m]
[1], x1 = 0.05 | 1.38013 | 1.37591 | 1.37154 | 1.36738 | – | – | – | –
[1], x1 = 0.1 | 1.39497 | 1.39068 | 1.38617 | 1.38191 | – | – | – | –
[1], x1 = 0.15 | 1.40825 | 1.40383 | 1.39926 | 1.39488 | – | – | – | –
[1], x1 = 0.2 | 1.41993 | 1.41549 | 1.41088 | 1.40643 | – | – | – | –
[1], x1 = 0.25 | 1.43052 | 1.42606 | 1.42138 | 1.41686 | – | – | – | –
[1], x1 = 0.3 | 1.44018 | 1.4357 | 1.43104 | 1.42643 | – | – | – | –
[1], x1 = 0.35 | 1.44896 | 1.44448 | 1.4398 | 1.43518 | – | – | – | –
[1], x1 = 0.4 | 1.45703 | 1.45255 | 1.44784 | 1.44318 | – | – | – | –
[1], x1 = 0.45 | 1.4645 | 1.46 | 1.45528 | 1.45059 | – | – | – | –
[1], x1 = 0.5 | 1.47142 | 1.46691 | 1.4622 | 1.45746 | – | – | – | –
[1], x1 = 0.55 | 1.47785 | 1.47332 | 1.46859 | 1.46384 | – | – | – | –
[1], x1 = 0.6 | 1.48384 | 1.4793 | 1.47455 | 1.46979 | – | – | – | –
[1], x1 = 0.65 | 1.48938 | 1.48487 | 1.4801 | 1.47528 | – | – | – | –
[1], x1 = 0.7 | 1.49451 | 1.49 | 1.4852 | 1.48039 | – | – | – | –
[1], x1 = 0.75 | 1.49936 | 1.49482 | 1.49002 | 1.48515 | – | – | – | –
[1], x1 = 0.8 | 1.50381 | 1.49926 | 1.49445 | 1.48961 | – | – | – | –
[1], x1 = 0.85 | 1.50803 | 1.50347 | 1.49866 | 1.49378 | – | – | – | –
[1], x1 = 0.9 | 1.512 | 1.50743 | 1.5026 | 1.49773 | – | – | – | –
[1], x1 = 0.95 | 1.51569 | 1.51112 | 1.50631 | 1.50144 | – | – | – | –
[1], x1 = 1 | 1.51915 | 1.51467 | 1.50993 | 1.50514 | – | – | – | –
[2], x1 = 0.05 | – | – | – | – | 23.8 | 23 | 22.1 | 21.2
[2], x1 = 0.1 | – | – | – | – | 24.63 | 23.78 | 22.87 | 21.9
[2], x1 = 0.15 | – | – | – | – | 25.4 | 24.51 | 23.57 | 22.6
[2], x1 = 0.2 | – | – | – | – | 26.18 | 25.25 | 24.28 | 23.3
[2], x1 = 0.25 | – | – | – | – | 26.92 | 25.96 | 24.94 | 23.95
[2], x1 = 0.3 | – | – | – | – | 27.67 | 26.66 | 25.59 | 24.6
[2], x1 = 0.35 | – | – | – | – | 28.37 | 27.3 | 26.2 | 25.2
[2], x1 = 0.4 | – | – | – | – | 29.04 | 27.9 | 26.8 | 25.8
[2], x1 = 0.45 | – | – | – | – | 29.69 | 28.55 | 27.4 | 26.4
[2], x1 = 0.5 | – | – | – | – | 30.33 | 29.16 | 28 | 27
[2], x1 = 0.55 | – | – | – | – | 30.97 | 29.79 | 28.6 | 27.6
[2], x1 = 0.6 | – | – | – | – | 31.62 | 30.41 | 29.2 | 28.2
[2], x1 = 0.65 | – | – | – | – | 32.29 | 31.05 | 29.8 | 28.8
[2], x1 = 0.7 | – | – | – | – | 33.01 | 31.75 | 30.5 | 29.46
[2], x1 = 0.75 | – | – | – | – | 33.78 | 32.5 | 31.2 | 30.16
[2], x1 = 0.8 | – | – | – | – | 34.6 | 33.3 | 32 | 30.92
[2], x1 = 0.85 | – | – | – | – | 35.6 | 34.2 | 32.8 | 31.76
[2], x1 = 0.9 | – | – | – | – | 36.6 | 35.2 | 33.8 | 32.7
[2], x1 = 0.95 | – | – | – | – | 37.6 | 36.2 | 34.8 | 33.8
[2], x1 = 1 | – | – | – | – | 38.6 | 37.2 | 35.8 | 34.8

Reference: the NIST ThermoML archive (doi:10.1021/je060139a)
